Reference: paper PMC3961230, “Theoretical and Experimental Studies of New Modified Isoflavonoids as Potential Inhibitors of Topoisomerase I from Plasmodium falciparum” (PLoS ONE, 2014)
Values after ≈ are worked out from the molar mass of the structure shown. Read-outs that look alike come from different tables or passages of the source.

Legend:
[1] = system: P. falciparum CQ-sensitive (3D7 strain); assay: anti-HRPII test, P. falciparum blood parasites, CQ-sensitive 3D7 strain; type: cell-based; conditions: Plasmodium falciparum
Source text: (§1) A CQ-resistant and mefloquine-sensitive P. falciparum, clone W2 [27] and a CQ-sensitive strain 3D7, were cultivated as described, in human erythrocytes (A^+), in complete medium (RPMI 1640 supplemented with 10% human sera blood group A^+) and tests followed a protocol slightly modified as follows. Human erythrocytes (A^+) and serum blood group A^+ were kindly donated by Center of Hemotherapy and Hemathology of Minas Gerais (HEMOMINAS - http://www.hemominas.mg.gov.br), under the mutual cooperation term number 18/09.
(§2) The ring-stage parasites sorbitol-synchronized were adjusted for parasitemia and hematocrit, according to the specifications for the test, then distributed in 96-well microtiter plates (Corning, Santa Clara, CA, EUA), previously prepared and containing the diluted compounds in dimethyl sulfoxide (DMSO) (0.02%) aqueous stock solution, in triplicates for each dose. CQ, the standard antimalarial, was tested in parallel each time. The drug activity was determined in relation to parasite cultures in complete medium and no drugs, as described. Parasite growth was measured through the anti-HRPII test in cultures adjusted to 1.5% hematocrit and 0.05% parasitemia, with monoclonal antibodies (MPFM-55A and MPFG-55P) commercially acquired (ICLLAB®, USA) and the TMB chromogen (3,3′,5,5′-Tetramethylbenzidine) from KPL (Gaithersburg, MD, EUA). The reaction was stopped with […] of 1 M sulfuric acid, absorbance read at 450 nm in a spectrophotometer (SpectraMax340PC384, Molecular Devices). Sigmoid dose-response curves were generated with curve-fitting software (Microcal Origin Software 5.0, Inc.), used to determine the 50% inhibitory concentration of the parasite growth (IC50), and activity calculated by comparing growth in drug-exposed cultures and the drug-free control cultures.

[2] = system: normal kidney glomerular cells from green monkey (BGM); assay: Cytotoxicity test (MTT) against BGM cells; type: cell-based; conditions: for MDL50 (µg/mL) Mean ± SD: 24 h
Procedure: The cytotoxicity tests were performed against normal kidney glomerular cells from green monkey (BGM) as follows. The cells were cultured under a 5% CO2 atmosphere, at 37°C, in 75 cm^2 sterile flasks in RPMI 1640 medium supplemented with 10% heat-inactivated fetal calf serum, and 40 mg/L gentamicin. When confluent, the cell monolayer was washed with culture medium, trypsinized, distributed in flat-bottomed 96-well plates (5×10^3 cells/well), and incubated for 18 h at 37°C for cell adherence. The compounds (20 µL) were added to the cell plates, at various concentrations (1000 to1 µg/mL), incubated for 24 h, then received a solution of MTT [3-(4,5-dimethylthiazol-2-yl)-2,5-diphenyltetrazolium bromide] (5 mg/mL; 20 µL/well), followed by another 3 h incubation, to evaluate mitochondrial viability. The supernatants were removed, DMSO added to each well (100 µL), carefully mixed to solubilize the formazan crystals. The optical density was determined at 570 and 630 nm (background) (SpectraMax340PC384, Molecular Devices). Cell viability was expressed as the percentage of the control absorbance in the untreated cells after subtracting the appropriate background. The minimum lethal dose for 50% of the cells (MLD50) was determined and the selectivity index (SI) calculated as the ratio between cytotoxicity and activity.

[3] = system: P. falciparum CQ-resistant (W2 clone); assay: anti-HRPII test, P. falciparum blood parasites, CQ-resistant W2 clone; type: cell-based; conditions: Plasmodium falciparum
Source text: as §1, §2

[4] = system: P. berghei CQ-sensitive (NK65); assay: Antimalarial suppressive test against P. berghei in mice; type: in vivo, P. berghei in Swiss mice; conditions: for % Reduction of parasitemia, 5th day, Exp.1 / Mean Parasitemia ± SD, 5th day, Exp.1 / % Reduction of parasitemia, 7th day, Exp.1 / Mean Parasitemia ± SD, 7th day, Exp.1 / % Reduction of parasitemia, 5th day, Exp.2 / Mean Parasitemia ± SD, 5th day, Exp.2 / % Reduction of parasitemia, 7th day, Exp.2 / Mean Parasitemia ± SD, 7th day, Exp.2: oral, 3 days; for % Reduction of parasitemia, 5th day, Exp.1 / Mean Parasitemia ± SD, 5th day, Exp.1 / % Reduction of parasitemia, 7th day, Exp.1 / Mean Parasitemia ± SD, 7th day, Exp.1: chloroquine 5 mg/kg, LQB223 100 mg/kg; for % Reduction of parasitemia, 5th day, Exp.1 / % Reduction of parasitemia, 5th day, Exp.2: day 5; for % Reduction of parasitemia, 5th day, Exp.1 / % Reduction of parasitemia, 7th day, Exp.1 / % Reduction of parasitemia, 5th day, Exp.2 / % Reduction of parasitemia, 7th day, Exp.2: versus non-treated mice; for Mean Parasitemia ± SD, 5th day, Exp.1 / Mean Parasitemia ± SD, 5th day, Exp.2: day 5 of infection; for % Reduction of parasitemia, 7th day, Exp.1 / % Reduction of parasitemia, 7th day, Exp.2: day 7; for Mean Parasitemia ± SD, 7th day, Exp.1 / Mean Parasitemia ± SD, 7th day, Exp.2: day 7 of infection; for % Reduction of parasitemia, 5th day, Exp.2 / Mean Parasitemia ± SD, 5th day, Exp.2 / % Reduction of parasitemia, 7th day, Exp.2 / Mean Parasitemia ± SD, 7th day, Exp.2: chloroquine 15 mg/kg, LQB223 50 mg/kg
Procedure: The antimalarial suppressive test in mice, as previously described, was slightly modified. Briefly, Swiss outbred adult female mice, 20±2 g weight, were inoculated with P. berghei CQ-sensitive (NK65) by intraperitoneal route, 1×10^5 freshly infected red blood cells (iRBC) per animal. Two to 24 h later, the mice were randomly distributed to be submitted to drug treatment by oral route, during three consecutive days, once a day; two control groups were used, one non treated and another treated with CQ (either 5 or 15 mg/kg).
The molecule LQB223, freshly diluted with 3% DMSO in water immediately before treatment, was given by gavage, in doses of 100 and 50 mg/kg in 200 µL volume per animal. Blood smears were prepared at days fifth and seventh after parasite inoculation, methanol-fixed, stained with Giemsa, and examined microscopically for parasitemia determination. […] Molecules reducing parasitemia by 30% or more were considered active.

[5] = system: P. falciparum CQ-sensitive (3D7 strain); conditions: ref [9], [10]; cited from earlier work
[6] = system: P. falciparum CQ-resistant (W2 clone); conditions: ref [9], [10]; cited from earlier work
[7] = CQ-sensitive 3D7, anti-HRPII test, three experiments, ≤10 active, 11–20 partially active, >20 inactive, read-out: IC50 (µg/mL) Mean ± SD, 3D7
[8] = BGM monkey kidney cells, MTT, minimal lethal dose for 50% of cells
[9] = CQ-resistant W2, anti-HRPII test, three experiments, ≤10 active, 11–20 partially active, >20 inactive, read-out: IC50 (µg/mL) Mean ± SD, W2
[10] = W2, CQ-resistant P. falciparum, single curve printed in the picture, read-out: IC50 from dose response curve (Figure 3)

Compound: Cc1ccc(S(=O)(=O)N2c3ccccc3[C@H]3COC4=C(C(=O)c5ccccc5C4=O)[C@H]32)cc1 (relative stereo) [LQB192]
- IC50 [1, 7]: 3.8 ± 1 µg/mL (≈ 8.31 µM)
- toxicity to BGM cells ([2]; BGM cells): toxic to BGM cells
- MDL50 (µg/mL) Mean ± SD [2, 8]: 68.7 ± 8.4 µg/mL
- IC50 [3, 9]: 2.9 ± 2.5 µg/mL (≈ 6.34 µM)

Compound: Cc1ccc(S(=O)(=O)N2c3ccccc3[C@H]3CCc4ccccc4[C@H]32)cc1 (relative stereo) [LQB223]
- IC50 [1, 7]: 7.8 ± 3 µg/mL (≈ 20.8 µM)
- MDL50 (µg/mL) Mean ± SD [2, 8]: ≥1000 µg/mL
- % Reduction of parasitemia, 5th day, Exp.1 [4]: 67%
- Mean Parasitemia ± SD, 5th day, Exp.1 [4]: 0.15±0.2
- % Reduction of parasitemia, 7th day, Exp.1 [4]: 28%
- Mean Parasitemia ± SD, 7th day, Exp.1 [4]: 11±3
- % Reduction of parasitemia, 5th day, Exp.2 [4]: 30%
- Mean Parasitemia ± SD, 5th day, Exp.2 [4]: 1.2±0.5
- % Reduction of parasitemia, 7th day, Exp.2 [4]: 13%
- Mean Parasitemia ± SD, 7th day, Exp.2 [4]: 18.3±1.5
- antimalarial activity in vivo ([4]; mice infected with P. berghei): active in vivo
- IC50 [3, 10]: 12.4 µg/mL (≈ 33 µM)
- IC50 [3, 9]: 10.2 ± 1.2 µg/mL (≈ 27.2 µM)

Compound: O=C1C2=C(C(=O)c3ccccc31)[C@H]1Oc3ccccc3[C@H]1CO2 (relative stereo) [LQB118]
- IC50 [1, 7]: 0.16 ± 0.03 µg/mL (≈ 0.526 µM)
- toxicity to BGM cells [2]: toxic to BGM cells
- MDL50 (µg/mL) Mean ± SD ([2]; green monkey): ≤3.9 µg/mL
- IC50 [3, 9]: 0.17 ± 0.1 µg/mL (≈ 0.559 µM)

Compound: COC(=O)c1ccc2c(c1)[C@H]1COC3=C(C(=O)c4ccccc4C3=O)[C@H]1O2 (relative stereo) [LQB221]
- IC50 [1, 7]: 0.25 ± 0.1 µg/mL (≈ 0.69 µM)
- toxicity to BGM cells ([2]; BGM cells): toxic to BGM cells
- MDL50 (µg/mL) Mean ± SD [2, 8]: 5.1 µg/mL
- IC50 [3, 9]: 0.63 ± 0.8 µg/mL (≈ 1.74 µM)

Compound: CCN(CC)CCCC(C)Nc1ccnc2cc(Cl)ccc12 (stereo not drawn) [Chloroquine, chloroquine, reference compound]
- IC50 ([1]; 3D7, read-out: IC50 (µg/mL) Mean ± SD, 3D7): 0.03 µg/mL (≈ 0.0938 µM)
- IC50, 3D7 strain, previous work [5]: 0.0035 µg/mL (≈ 0.0109 µM)
- % Reduction of parasitemia, 5th day, Exp.1 [4]: 100%
- Mean Parasitemia ± SD, 5th day, Exp.1 [4]: 0
- % Reduction of parasitemia, 7th day, Exp.1 [4]: 52%
- Mean Parasitemia ± SD, 7th day, Exp.1 [4]: 7.3±3
- % Reduction of parasitemia, 5th day, Exp.2 [4]: 100%
- Mean Parasitemia ± SD, 5th day, Exp.2 [4]: 0±0.0
- % Reduction of parasitemia, 7th day, Exp.2 [4]: 100%
- Mean Parasitemia ± SD, 7th day, Exp.2 [4]: 0±0.0
- IC50 ([3]; W2, read-out: IC50 (µg/mL) Mean ± SD, W2): 0.138 µg/mL (≈ 0.431 µM)
- IC50, W2 clone, previous work [6]: 0.07 µg/mL (≈ 0.219 µM)

Compound: COc1ccc2c(c1)O[C@@H]1C3=C(OC[C@H]21)C(=O)c1ccccc1C3=O (relative stereo) [LQB216]
- IC50 [1, 7]: 0.21 ± 0.09 µg/mL (≈ 0.628 µM)
- MDL50 (µg/mL) Mean ± SD [2, 8]: 24.2 ± 3 µg/mL
- IC50 [3, 10]: 0.23 µg/mL (≈ 0.688 µM)
- IC50 [3, 9]: 0.4 ± 0.2 µg/mL (≈ 1.2 µM)

Compound: COc1cc(C=O)cc2c1O[C@@H]1C3=C(OC[C@H]21)C(=O)c1ccccc1C3=O (relative stereo) [LQB222]
- IC50 [1, 7]: 3.5 ± 0.4 µg/mL (≈ 9.66 µM)
- toxicity to BGM cells ([2]; BGM cells): toxic to BGM cells
- MDL50 (µg/mL) Mean ± SD [2, 8]: ≤3.9 µg/mL
- IC50 [3, 9]: 1.8 ± 1.6 µg/mL (≈ 4.97 µM)
